# Test results as given in US20140031325A1, “COMBINATION THERAPY WITH LENALIDOMIDE AND A CDK INHIBITOR FOR TREATING MULTIPLE MYELOMA” (Celgene Corporation, priority 2010, published 2014).
# Tests used:
# [1] = test system: newly diagnosed multiple myeloma; test: Combination therapy of lenalidomide and dexamethasone in patients with newly diagnosed multiple myeloma; type: in vivo
# From the text: Most adverse events were manageable with dose modification. The combination therapy is an effective first-line therapy for the treatment of patients with newly diagnosed multiple myeloma.
# multiple myeloma = test: Combination therapy of lenalidomide and CDK4/CDK6 inhibitor (PD 0332991) in patients with multiple myeloma; type: in vivo
# Procedure: Lenalidomide and a CDK4/CDK6 inhibitor control tumor expansion and enhance tumor killing in the treatment of multiple myeloma. Patients with multiple myeloma are treated with lenalidomide (Revlimid®, 5 to 25 mg/day orally on days 1-21 in a 28 days cycle) and a CDK4/CDK6 inhibitor (PD 0332991, 25 to 150 mg/day orally on days 1-21 in a 28 days cycle). Maintenance treatment are continued until the disease progression.
# [2] = lenalidomide in combination with dexamethasone, newly diagnosed multiple myeloma
smiles,measurement,setting,value
"Nc1cccc2c1CN(C1CCC(=O)NC1=O)C2=O (stereo not drawn) [lenalidomide, 3-(4-amino-1-oxo-1,3-dihydro-isoindol-2-yl)-piperidine-2,6-dione]",overall response rate and complete response,[1]; [2],high overall response rate and complete response
same,progression-free survival at 1 year,[1]; [2],significantly increased progression-free survival at 1 year
same,tolerability,[1]; [2],well tolerated
same,patient response,"[1]; newly diagnosed multiple myeloma patients, lenalidomide 25 mg/day days 1-21 of 28-day cycle in combination with dexamethasone 40 mg/day (days 1-4, 9-12, 17-20 or days 1, 8, 15, 22)",most of patients responded
same,activity of the therapy in multiple myeloma patients,multiple myeloma; Revlimid 5 to 25 mg/day orally days 1-21 of 28-day cycle in combination with PD 0332991 25 to 150 mg/day orally days 1-21,highly active
same,tolerability,"multiple myeloma; Revlimid 5 to 25 mg/day orally in combination with PD 0332991 25 to 150 mg/day orally, multiple myeloma patients",well tolerated
